From patent US8193228B2, “Substituted imidazole as bombesin receptor subtype-3 modulators” (Merck Sharp & Dohme Corp., priority 2006, dated 2012) come the findings set out here.

The first assay concerns the target T1, human BRS-3 (Homo sapiens, UniProt P32247).
T1 construct: expressed in transfected cells
T1 sequence (P32247 1-399): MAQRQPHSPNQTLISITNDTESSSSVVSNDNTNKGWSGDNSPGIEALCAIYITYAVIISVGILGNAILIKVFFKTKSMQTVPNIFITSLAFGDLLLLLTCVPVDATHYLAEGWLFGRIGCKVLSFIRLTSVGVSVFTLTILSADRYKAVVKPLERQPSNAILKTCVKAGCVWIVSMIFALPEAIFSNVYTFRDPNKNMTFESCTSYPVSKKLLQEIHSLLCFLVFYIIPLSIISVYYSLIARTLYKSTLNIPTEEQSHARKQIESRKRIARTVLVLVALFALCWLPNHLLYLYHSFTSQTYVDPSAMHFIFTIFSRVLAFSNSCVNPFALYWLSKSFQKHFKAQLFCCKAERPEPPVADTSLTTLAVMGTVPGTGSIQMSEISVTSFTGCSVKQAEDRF
As to the kind of experiment: BRS-3 receptor binding assay (radioligand filtration). Conditions: read-out: BRS-3 binding IC50; selected compounds. How it is done:
Dissociated cells were collected by centrifuging at 1000 rpm for 10 minutes. Cell pellets were resuspended and homogenized at 4° C. using a Polytron homogenizer (setting 40, 20 stokes) in approximately 10 mL membrane preparation buffer (10 mM Tris pH 7.4, 0.01 mM Pefabloc, 10 μM phosphoramidon and 40 μg/mL Bacitracin) per T175 flask. After centrifugation at 2200 rpm (1000×g) for 10 minutes at 4° C., the supernatant was transferred to a clean centrifuge tube and spun at 18,000 rpm (38,742×g) for 15 minutes. at 4° C.
The filters were washed five times with ice-cold washing buffer (1×PBS without Mg^++ and Ca^++). The radioactivity was determined by adding 30 μl of microscintillant/well after each plate was dried at room temperature overnight or placed at 50° C. for 1 hr.
The radioligand, [^3H]-1-{4-[(4,5-difluoro-2-hydroxycarbonylphenyl)phenyl]}-2-(4-cyclohexylmethyl-1H-imidazol-2-yl)ethane, was used for binding to receptor membranes generated with BRS3 from other species and was also utilized for the human receptor. […] After incubation for 1-2 hours at room temperature, membrane bound [^3H]-biphenyl was separated from free radiologand by filtering through GF/C filters presoaked in 1% PEI solution. The filters were washed five times with ice-cold washing buffer (50 mM Tris pH 7.4, 10 mM MgCl2, 2.5 mM EDTA and 0.02% Triton X-100). The radioactivity was determined by adding 30 μl of microscintillant/well after each plate was dried at room temperature overnight or placed at 50° C. for 1 hr.
A Packard Top Count was used to read the filter plates. The data in % inhibition of binding was plotted vs. the log molar concentration of receptor ligand (compound). The IC50 was reported as the inflection point of the resulting sigmoidal curve.
In general, IC50 refers to the concentration at which inhibition is half-maximal. Turning to `O[C@@](Cc1nc(CC2(C(F)(F)F)CC2)c[nH]1)(c1ccc(-n2cccn2)cc1)C(F)(F)F` [Example 31a, (2S)-1,1,1-trifluoro-2-[4-(1H-pyrazol-1-yl)phenyl]-3-(4-{[1-(trifluoromethyl)cyclopropyl]methyl}-1H-imidazol-2-yl)propan-2-ol], the IC50 came out at 36 nM.

The assay is the same for the next values; noted with them: selected compounds; read-out: BRS-3 binding IC50.
As to `OC(Cc1nc(CC2(C(F)(F)F)CC2)c[nH]1)(c1ccc(-c2ccc(F)cn2)cc1)C(F)(F)F` (single isomer, unassigned) [Example 55, 1,1,1-trifluoro-2-[4-(5-fluoropyridin-2-yl)phenyl]-3-(4-{[1-(trifluoromethyl)cyclopropyl]methyl}-1H-imidazol-2-yl)propan-2-ol], the IC50 was 56 nM.
On the same count and under the same terms, in the case of `OC(Cc1nc(CC2(C(F)(F)F)CC2)c[nH]1)(c1ccc(-n2cccn2)cc1)C(F)F` (single isomer, unassigned) [Example 72, 1,1-difluoro-2-[4-(1H-pyrazol-1-yl)phenyl]-3-(4-{[1-(trifluoro-methyl)cyclopropyl]methyl}-1H-imidazol-2-yl)propan-2-ol] it was 12 nM; in that of `CC(C)(C)Cc1c[nH]c(CC(O)(c2ccc(-c3ccc(F)cn3)cc2)C(F)(F)F)n1` (stereo not drawn) [Example 1, 3-[4-(2,2-dimethylpropyl)-1H-imidazol-2-yl]-1,1,1-trifluoro-2-[4-(5-fluoropyridin-2-yl)phenyl]propan-2-ol], 18 nM.
The same measure, in the same setting: in the case of `CC(C)(C)Cc1c[nH]c(CC(C)(O)c2ccc(-c3ccc(F)cn3)cc2)n1` (stereo not drawn) [Example 4, 1-[4-(2,2-dimethylpropyl)-1H-imidazol-2-yl]-2-[4-(5-fluoropyridin-2-yl)phenyl]propan-2-ol] it was 19 nM; in that of `CC(C)(C)Cc1c[nH]c(CC(O)(c2ccc(-c3ccc(F)cn3)cc2)C(F)F)n1` (stereo not drawn) [Example 40, 3-[4-(2,2-dimethylpropyl)-1H-imidazol-2-yl]-1,1-difluoro-2-[4-(5-fluoropyridin-2-yl)phenyl]propan-2-ol], 15 nM; in that of `OC(Cc1nc(CC2(C(F)(F)F)CC2)c[nH]1)(c1ccc(-c2ccc(F)cn2)cc1)C(F)F` (stereo not drawn) [Example 45, 1,1-difluoro-2-[4-(5-fluoropyridin-2-yl)phenyl]-3-(4-{[1-(trifluoromethyl)cyclopropyl]methyl}-1H-imidazol-2-yl)propan-2-ol], 71 nM.
On the same count and under the same terms, in the case of `CC(O)(Cc1nc(CC2(C(F)(F)F)CC2)c[nH]1)c1ccc(-c2ccc(F)cn2)cc1` (stereo not drawn) [Example 49, 2-[4-(5-fluoropyridin-2-yl)phenyl]-1-(4-{[1-(trifluoromethyl)cyclopropyl]methyl}-1H-imidazol-2-yl)propan-2-ol] it was 54 nM; in that of `CC(O)(Cc1nc(CC2(C(F)(F)F)CC2)c[nH]1)c1ccc(-n2cccn2)cc1` (stereo not drawn) [Example 52, 2-[4-(1H-pyrazol-1-yl)phenyl]-1-(4-{[1-(trifluoromethyl)cyclopropyl]methyl}-1H-imidazol-2-yl)propan-2-ol], 19 nM; in that of `CC(C)(C)Cc1c[nH]c(CC(C)(O)c2ccc(-n3cccn3)cc2)n1` (stereo not drawn) [Example 60, 1-[4-(2,2-dimethylpropyl)-1H-imidazol-2-yl]-2-[4-(1H-pyrazol-1-yl)phenyl]propan-2-ol], 23 nM.
As for `CC(C)(C)Cc1c[nH]c(CC(O)(c2ccc(-n3cccn3)cc2)C(F)F)n1` (stereo not drawn) [Example 75, 3-[4-(2,2-dimethylpropyl)-1H-imidazol-2-yl]-1,1-difluoro-2-[4-(1H-pyrazol-1-yl)phenyl]propan-2-ol], the IC50 was determined as 11 nM.
In the case of `CC(C)(C)Cc1c[nH]c(CC(O)(c2ccc(-n3cccn3)cc2)C(F)(F)F)n1` (stereo not drawn) [Example 78, 3-[4-(2,2-dimethylpropyl)-1H-imidazol-2-yl]-1,1,1-trifluoro-2-[4-(1H-pyrazol-1-yl)phenyl]propan-2-ol], the IC50 turned out to be 17 nM.
